Assays:
Assay type in all cases: physicochemical
[1] = Slurry experiments at room temperature (thermodynamic stability of crystal forms, X-ray diffraction); settings: for Slurry Result / Slurry result, large scale: room temperature; for Slurry Result: form by XRD; for Slurry result, large scale: 0.5 g of powder in 10 mL
Experimental: Slurry experiments of Form I were performed at room temperature to verify if Form I is the thermodynamic crystal form. 0.050 g of Form I was suspended in 2 ml of solvent and stirred for 1 week. The sample was filtered and analyzed by X-ray diffraction. In the large majority of the experiments, Form I converts into Form II. […] By 1,4-Dioxane, a new crystal form was obtained named Form V. See Table 46 for the Form I slurries results (7 days).
Further slurry experiments of Form I were performed at room temperature using 0.5 g of powder in 10 mL of solvent to confirm the results obtained even in large scale.
0.050 g of Form I were suspended in 2 ml of solvent and stirred at room temperature for 4 weeks (30 days). The sample was filtered and analyzed by X-ray diffraction. By 1,4-Dioxane, Form V was obtained. By tetrahydrofuran, Form II and Form VII were obtained. […] See Table 47 for the Form I slurries results (30 days).
(§1) Slurry experiments of mixtures of Form I and Form II were performed at room temperature to verify their thermodynamic stability. 0.040 g of Form I+0.040 g of Form II were suspended in 4 ml of solvent and stirred for 1 week (7 days). The samples were filtered and analyzed by X-ray diffraction. By 1,4-Dioxane, Form V was obtained. […] See Table 48 for the Form I+Form II slurries results (7 days).
as §1, with “II” for “I”, “III” for “II”, “II+0.040” for “I+0.040”, “49” for “48”, “II+Form III” for “I+Form II”
as §1, with “II” for “I”, “IV” for “II”, “II+0.040” for “I+0.040”, “50” for “48”, “II+Form IV” for “I+Form II”
as §1, with “II” for “I”, “V” for “II”, “II+0.040” for “I+0.040”, “51” for “48”, “II+Form V” for “I+Form II”
as §1, with “II” for “I”, “VI” for “II”, “II+0.040” for “I+0.040”, “52” for “48”, “II+Form VI” for “I+Form II”
as §1, with “II” for “I”, “VII” for “II”, “II+0.040” for “I+0.040”, “53” for “48”, “II+Form VII” for “I+Form II”

[2] = Precipitation by anti-solvent (ethyl acetate) addition at room temperature
Source text: The samples were filtered and analyzed by X-ray diffraction. Form I converts into Form II using chloroform, and also with benzyl alcohol. The other experiments yield only Form I. See Table 54 for Form I precipitation results by anti-solvent addition.

[3] = TGA and DSC characterization
Experimental: The PXRD diffraction patterns were obtained on X-ray powder diffraction PANalytical X′pert Pro equipped with X′Celerator, in a measurement range between 3 and 40 2 theta. All the DSC experiments were performed with a DSC 7 Perkin Elmer instrument in a temperature range between 25° C. and 250° C. with a heating rate of 10° C./min.
All the TGA experiments were conducted with a TGA 7 Perkin Elmer instrument in a temperature range between 39° C. and 310° C. with a heating rate of 10° C./min.
PXRD, DSC, TGA and IR analyses were obtained for Bupropion Hydrobromide Polymorph Form I, Form II, Form III, Form IV, Form V, Form VI, and Form VII. PXRD analyses were obtained for the amorphous form. With respect to the PXRD analyses, the Peak List is shown for Form I, Form II, Form III, Form IV, Form V, Form VI, Form VII and the amorphous form in Table 56, Table 57, Table 58, Table 59, Table 60, Table 61, Table 62 and Table 63 respectively.

Br.CC(NC(C)(C)C)C(=O)c1cccc(Cl)c1 (single isomer, unassigned) [Form I]
Form II + VII: Slurry Result ([1]; Benzonitrile, 7 days) | Slurry Result ([1]; Tetrahydrofuran, 30 days)
convert into Form II: Slurry result, large scale ([1]; Ethyl Acetate) | Slurry result, large scale ([1]; p-Xylene)
236.81 °C: DSC (onset ° C.) ([3]; successive thermal events listed per polymorph)
Form I: Slurry Result ([1]; Cyclohexane, 7 days) | Slurry Result ([1]; Methyl-Cyclohexane, 7 days) | Precipitation Result ([2]; solvent 1-Butanol) | Precipitation Result ([2]; solvent 1-Methyl-2-Pyrrolidone) | Precipitation Result ([2]; solvent 1-Propanol) | Precipitation Result ([2]; solvent 2-Methoxy Ethanol) | Precipitation Result ([2]; solvent 2-Methyl-1-Propanol) | Precipitation Result ([2]; solvent 2-Propanol) | Precipitation Result ([2]; solvent Dichloromethane) | Precipitation Result ([2]; solvent Dimethylformamide) | Precipitation Result ([2]; solvent Ethanol) | Precipitation Result ([2]; solvent Methanol)
Form II: Slurry Result ([1]; 1,2-Dimethoxy Ethane, 7 days) | Slurry Result ([1]; 1,2-Dimethoxy Ethane, 30 days) | Slurry Result ([1]; 1-Octanol, 7 days) | Slurry Result ([1]; 1-Octanol, 30 days) | Slurry Result ([1]; 3-Pentanone, 7 days) | Slurry Result ([1]; 4-Methyl-2-Pentanone, 7 days) | Slurry Result ([1]; 4-Methyl-2-Pentanone, 30 days) | Slurry Result ([1]; Acetone, 7 days) | Slurry Result ([1]; Acetone, 30 days) | Slurry Result ([1]; Cyclohexane, 30 days) | Slurry Result ([1]; Diethyl Carbonate, 7 days) | Slurry Result ([1]; Diethyl Carbonate, 30 days) | Slurry Result ([1]; Diethyl Ether, 30 days) | Slurry Result ([1]; Diethyl ether, 7 days) | Slurry Result ([1]; Ethyl Acetate (second line of the table), 30 days) | Slurry Result ([1]; Ethyl Benzoate, 7 days) | Slurry Result ([1]; Ethyl Formate, 7 days) | Slurry Result ([1]; Ethyl Formate, 30 days) | Slurry Result ([1]; Ethyl acetate, 7 days) | Slurry Result ([1]; Ethyl acetate, 30 days) | Slurry Result ([1]; Iso-Propyl Ether, 7 days) | Slurry Result ([1]; Iso-Propyl Ether, 30 days) | Slurry Result ([1]; Isopropyl Acetate, 7 days) | Slurry Result ([1]; Isopropyl Acetate, 30 days) | Slurry Result ([1]; Mesitylene, 7 days) | Slurry Result ([1]; Methyl Benzoate, 7 days) | Slurry Result ([1]; Methyl Benzoate, 30 days) | Slurry Result ([1]; Methyl Ethyl Ketone, 7 days) | Slurry Result ([1]; Methyl Ethyl Ketone, 30 days) | Slurry Result ([1]; Methyl-Cyclohexane, 30 days) | Slurry Result ([1]; Nitrobenzene, 7 days) | Slurry Result ([1]; Propyl Acetate, 7 days) | Slurry Result ([1]; Tert-Butanol, 7 days) | Slurry Result ([1]; Tetrahydrofuran, 7 days) | Slurry Result ([1]; Toluene, 7 days) | Slurry Result ([1]; Toluene, 30 days) | Slurry Result ([1]; n-Hexan, 7 days) | Slurry Result ([1]; n-Hexan, 30 days) | Slurry Result ([1]; p-Xylene, 7 days) | Slurry Result ([1]; p-Xylene, 30 days) | Slurry Result ([1]; t-Butyl Methyl Ether, 7 days) | Slurry Result ([1]; t-Butyl Methyl Ether, 30 days) | Precipitation Result ([2]; solvent Benzyl Alcohol) | Precipitation Result ([2]; solvent Chloroform)
metastable form: Thermodynamic stability of the crystal form as shown by slurry experiments [1]
−100.04%: TGA (mass change) ([3]; successive mass-loss steps listed per polymorph)
Form V: Slurry Result ([1]; 1,4-Dioxane, 7 days) | Slurry Result ([1]; 1,4-Dioxane, 30 days)

Reference: US8604085B2, “Bupropion hydrobromide polymorphs” (Valeant International Bermuda, priority 2008, dated 2013)
